Results published in patent publication US20060241122A1, “Combination therapy for the treatment of neoplasms” (priority 2003, published 2006).
Where two headings read alike, the source gives them in different places.

Assays:
[1] = test system: human melanoma SKMEL-28 cells; experiment: Anti-proliferation assay (Alamar Blue metabolism), SKMEL-28 cells; format: cell-based
Text: (§1) The combination matrices were used immediately and discarded.

[2] = test system: human colorectal carcinoma HCT116 cells; experiment: Anti-proliferation assay (Alamar Blue metabolism), HCT116 cells;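 note: cells in 384-well plates exposed to compound combination matrices for 72 h, Alamar Blue fluorescence read (excitation 530 nm), inhibition calculated against mean of vehicle-only wells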
Method: Stock solutions (1000×) of each compound were prepared in DMSO and stored at −20° C. Master stock plates of 2-fold or 4-fold serial dilutions of individual compounds were prepared in 384-well plates. Combination matrices of test compounds were generated from these master stock plates by dilution into growth media described above. […] The combination matrices were used immediately and discarded.
The anti-proliferation assays were performed in 384-well plates. […] Cells were diluted in culture media such that 3,000 SKMEL-28 cells, or 1,500 cells for all the other cell lines, were delivered in 35 μl of media into each assay well. Assay plates were incubated for 16-24 hours 37° C.±0.5° C. with 5% CO2. After incubation, 4.5 μl of 10× stock solutions from the combination matrices were added to 40 μl of culture media. Assay plates were further incubated for 72 hours at 37° C.±0.5° C. with 5% CO2. […] Alamar Blue metabolism was quantified by the amount of fluorescence intensity 3.5-5.0 hours after addition. Quantification, using an LJL Analyst AD reader (LJL Biosystems), was taken in the middle of the well with high attenuation, a 100 msec read time, an excitation filter at 530 nm, and an emission filter at 575 nm. For some experiments, quantification was performed using a Wallac Victor^2 reader. Measurements were taken at the top of the well with stabilized energy lamp control; a 100 msec read time, an excitation filter at 530 nm, and an emission filter at 590 nm.

[3] = test system: human pancreatic cancer PANC1 cells; experiment: Anti-proliferation assay (Alamar Blue metabolism), PANC1 cells; format: cell-based; details: PANC1 cells
Text: as §1

[4] = test system: human prostate cancer DU145 cells; experiment: Anti-proliferation assay (Alamar Blue metabolism), DU145 cells; format: cell-based; details: Homo sapiens, DU-145, DU145 cells
Text: as §1

[5] = test system: non-small cell lung carcinoma A549 cells; experiment: Anti-proliferation assay (Alamar Blue metabolism), A549 cells; format: cell-based; details: A549 cells
Method: Inhibition of proliferation was measured by anti-proliferation assay as described below after incubation with the test compound(s) for 72 hours.
as §1
Cells were diluted in culture media such that 3,000 SKMEL-28 cells, or 1,500 cells for all the other cell lines, were delivered in 35 μl of media into each assay well. Assay plates were incubated for 16-24 hours 37° C.±0.5° C. with 5% CO2. […] Assay plates were further incubated for 72 hours at 37° C.±0.5° C. with 5% CO2. […] Alamar Blue metabolism was quantified by the amount of fluorescence intensity 3.5-5.0 hours after addition.
The percent inhibition (% I) for each well was calculated using the following formula: % I=[(avg. untreated wells−treated well)/(avg. untreated wells)]×100 The average untreated well value (avg. untreated wells) is the arithmetic mean of 40 wells from the same assay plate treated with vehicle alone.

[6] = Homo sapiens, HCT-116, read-out: Percent inhibition of Alamar Blue Metabolism, lovastatin […], econazole 0.0 μM
[7] = Homo sapiens, HCT-116, read-out: Percent inhibition of Alamar Blue Metabolism, tioconazole 0.0 μM, lovastatin […]
[8] = with addition of 7 μM itraconazole
[9] = Homo sapiens, HCT-116, read-out: Percent inhibition of Alamar Blue Metabolism, lovastatin 0.0 μM, econazole […]
[10] = Homo sapiens, HCT-116, read-out: Percent inhibition of Alamar Blue Metabolism, tioconazole […], lovastatin 0.0 μM

CC(C)n1c(/C=C/C(O)CC(O)CC(=O)O)c(-c2ccc(F)cc2)c2ccccc21 (stereo not shown) [Fluvastatin, fluvastatin]
inhibition at 3 µM ([1]; Homo sapiens, SK-MEL-28, SKMEL-28 cells, 3 μM fluvastatin + 7 μM itraconazole): 59.5%
inhibition at 49 µM ([1]; Homo sapiens, SK-MEL-28, SKMEL-28 cells, fluvastatin 49 μM alone, read-out: maximal inhibition): 27.8%
reduction in the concentration of fluvastatin ([1]; SKMEL-28 cells, 3 μM with 7 μM itraconazole vs 49 μM alone): 16 fold
Percent inhibition of Alamar Blue Metabolism in SKMEL-28 cells ([1]; Table 13: itraconazole 0.87 μM + fluvastatin at row conc. c1 (0-49 μM), 72 h): 35.4%
reduction in the concentration of fluvastatin ([2]; HCT116 cells, […] with 7 μM itraconazole vs 49 μM alone): 8 fold
inhibition at […] ([2]; Homo sapiens, HCT-116, HCT116 cells, […] fluvastatin + 7 μM itraconazole): 91.9%
inhibition at 49 µM ([2]; Homo sapiens, HCT-116, read-out: maximal inhibition, HCT116 cells, fluvastatin 49 μM alone): 93.1%
inhibition at 12 µM ([3]; Homo sapiens, PANC-1, 12 μM fluvastatin + 7 μM itraconazole): 56.8%
inhibition at 49 µM ([3]; Homo sapiens, PANC-1, fluvastatin 49 μM alone, read-out: maximal inhibition): 59.9%
inhibition at 12 µM ([4]; 12 μM fluvastatin + 14 μM itraconazole): 40.3%
inhibition at 12 µM ([4]; 12 μM fluvastatin, absence of itraconazole): 15.5%
inhibition at 49 µM ([4]; fluvastatin 49 μM alone, read-out: maximal inhibition): 58.3%

CC[C@H](C)C(=O)O[C@H]1C[C@@H](C)C=C2C=C[C@H](C)[C@H](CC[C@@H]3C[C@@H](O)CC(=O)O3)[C@H]21 [Lovastatin, lovastatin]
reduction in the concentration of lovastatin ([2]; HCT116 cells, 6 μM with […] itraconazole vs 48 μM alone): 8 fold
inhibition at 6 µM ([2]; Homo sapiens, HCT-116, HCT116 cells, 6.0 μM lovastatin + 9.0 μM tioconazole): 70.1%
inhibition at 6 µM ([2]; Homo sapiens, HCT-116, HCT116 cells, 6 μM lovastatin + […] itraconazole): 83.4%
inhibition at 18 µM ([2]; Homo sapiens, HCT-116, HCT116 cells, 18 μM lovastatin + […] econazole): 84.5%
inhibition at 0.3 µM ([2]; Homo sapiens, HCT-116, read-out: Percent inhibition of Alamar Blue Metabolism, lovastatin 0.3 μM, econazole 0.0 μM): 10.5%
inhibition at 0.6 µM ([2]; Homo sapiens, HCT-116, read-out: Percent inhibition of Alamar Blue Metabolism, lovastatin 0.6 μM, econazole 0.0 μM): 5.4%
inhibition at 9 µM ([2]; Homo sapiens, HCT-116, read-out: Percent inhibition of Alamar Blue Metabolism, lovastatin 9.0 μM, econazole 0.0 μM): 27.3%
inhibition at 18 µM [2, 6]: 41.3%
inhibition at 36 µM [2, 6]: 95.6%
inhibition at 0.2 µM ([2]; Homo sapiens, HCT-116, read-out: Percent inhibition of Alamar Blue Metabolism, tioconazole 0.0 μM, lovastatin 0.2 μM): 9.8%
inhibition at 0.4 µM ([2]; Homo sapiens, HCT-116, read-out: Percent inhibition of Alamar Blue Metabolism, tioconazole 0.0 μM, lovastatin 0.4 μM): 23.1%
inhibition at 0.8 µM ([2]; Homo sapiens, HCT-116, read-out: Percent inhibition of Alamar Blue Metabolism, tioconazole 0.0 μM, lovastatin 0.8 μM): 12.3%
inhibition at 3 µM ([2]; Homo sapiens, HCT-116, read-out: Percent inhibition of Alamar Blue Metabolism, tioconazole 0.0 μM, lovastatin 3.0 μM): 29.9%
inhibition at 6 µM ([2]; Homo sapiens, HCT-116, read-out: Percent inhibition of Alamar Blue Metabolism, tioconazole 0.0 μM, lovastatin 6.0 μM): 46.1%
inhibition at 12 µM [2, 7]: 50%
inhibition at 24 µM [2, 7]: 61.9%
inhibition at […] [2, 7]: 32.2%
inhibition at 24 µM ([2]; Homo sapiens, HCT-116, read-out: maximal inhibition, HCT116 cells, lovastatin 24 μM alone (Example 22)): 61.9%
inhibition at 36 µM ([2]; Homo sapiens, HCT-116, read-out: maximal inhibition, HCT116 cells, lovastatin 36 μM alone (Example 20)): 95.6%
inhibition at 48 µM ([2]; Homo sapiens, HCT-116, read-out: maximal inhibition, HCT116 cells, lovastatin 48 μM alone (Example 14)): 55%
Percent inhibition of Alamar Blue Metabolism in HCT116 cells ([2]; Table 14: itraconazole 14 μM + lovastatin at row conc. c1 (0-48 μM), 72 h): 88.9%

CCC(C)(C)C(=O)O[C@H]1C[C@@H](C)C=C2C=C[C@H](C)[C@H](CC[C@@H]3C[C@@H](O)CC(=O)O3)[C@H]21 [Simvastatin, simvastatin]
reduction in simvastatin ([1]; SKMEL-28 cells, 6 μM with 7 μM itraconazole vs 48 μM alone): 8 fold
inhibition of cell proliferation ([1]; SKMEL-28 cells, 9 μM statin + 7 μM itraconazole): 61.8%
inhibition ([1]; SKMEL-28 cells, 9 μM statin, absence of itraconazole): 24.0%
inhibition at 12 µM ([2]; Homo sapiens, HCT-116, HCT116 cells, 12 μM simvastatin + 7 μM itraconazole): 92.7%
simvastatin concentration required for nearly maximal inhibition [3, 8]: 12 µM
reduction in the concentration of simvastatin ([5]; 12 μM with 7 μM itraconazole vs 48 μM alone): 4 fold
simvastatin concentration required for nearly maximal inhibition [5, 8]: 12 µM

COCc1c(C(C)C)nc(C(C)C)c(/C=C/[C@@H](O)C[C@@H](O)CC(=O)O)c1-c1ccc(F)cc1 [cerivastatin]
reduction in the concentration of cerivastatin ([2]; HCT116 cells, […] with […] itraconazole vs 22 μM alone): 8 fold
inhibition at 22 µM ([2]; Homo sapiens, HCT-116, read-out: Percent inhibition of Alamar Blue Metabolism, cerivastatin 22 μM, itraconazole 0 μM): 85.5%
inhibition at 22 µM ([2]; Homo sapiens, HCT-116, read-out: maximal inhibition, HCT116 cells, cerivastatin 22 μM alone): 85.5%

Clc1ccccc1C(c1ccccc1)(c1ccccc1)n1ccnc1 [clotrimazole]
inhibition at 0.5 µM ([2]; Homo sapiens, HCT-116, read-out: Percent inhibition of Alamar Blue Metabolism, atorvastatin 0.0 μM, clotrimazole 0.5 μM): 25.9%
inhibition at 0.9 µM ([2]; Homo sapiens, HCT-116, read-out: Percent inhibition of Alamar Blue Metabolism, atorvastatin 0.0 μM, clotrimazole 0.9 μM): 35.8%

Clc1ccc(COC(Cn2ccnc2)c2ccc(Cl)cc2Cl)cc1 (stereo not shown) [econazole]
inhibition at 0.4 µM ([2]; Homo sapiens, HCT-116, read-out: Percent inhibition of Alamar Blue Metabolism, atorvastatin 0.0 μM, econazole 0.4 μM): 0.7%
inhibition at 0.7 µM ([2]; Homo sapiens, HCT-116, read-out: Percent inhibition of Alamar Blue Metabolism, atorvastatin 0.0 μM, econazole 0.7 μM): -1.7%
inhibition at 2.8 µM ([2]; Homo sapiens, HCT-116, read-out: Percent inhibition of Alamar Blue Metabolism, atorvastatin 0.0 μM, econazole 2.8 μM): 1.6%
inhibition at 0.4 µM ([2]; Homo sapiens, HCT-116, read-out: Percent inhibition of Alamar Blue Metabolism, lovastatin 0.0 μM, econazole 0.4 μM): 0.6%
inhibition at 0.8 µM ([2]; Homo sapiens, HCT-116, read-out: Percent inhibition of Alamar Blue Metabolism, lovastatin 0.0 μM, econazole 0.8 μM): 8.8%
inhibition at 3 µM ([2]; Homo sapiens, HCT-116, read-out: Percent inhibition of Alamar Blue Metabolism, lovastatin 0.0 μM, econazole 3.0 μM): 23.9%
inhibition at 6 µM ([2]; Homo sapiens, HCT-116, read-out: Percent inhibition of Alamar Blue Metabolism, lovastatin 0.0 μM, econazole 6.0 μM): 36.7%
inhibition at 48 µM ([2]; Homo sapiens, HCT-116, read-out: Percent inhibition of Alamar Blue Metabolism, lovastatin 0.0 μM, econazole 48.0 μM): 96.1%
inhibition at 12 µM [2, 9]: 57.2%
inhibition at 24 µM [2, 9]: 78.6%
inhibition at […] [2, 9]: 14.9%
inhibition at 36 µM ([2]; Homo sapiens, HCT-116, read-out: maximal inhibition, HCT116 cells, 36 μM alone (Example 18)): 83.1%

CC[C@H](C)C(=O)O[C@H]1C[C@@H](C)C=C2C=C[C@H](C)[C@H](CCC(O)C[C@@H](O)CC(=O)O)[C@H]21 (stereo partly shown) [lovastatin sodium]
reduction in the concentration of lovastatin ([2]; HCT116 cells, 2.8 μM with 7 μM itraconazole vs 22 μM alone): 8 fold
inhibition at 2.8 µM ([2]; Homo sapiens, HCT-116, HCT116 cells, 2.8 μM lovastatin sodium + 7 μM itraconazole): 82%
inhibition at 22 µM ([2]; Homo sapiens, HCT-116, read-out: maximal inhibition, HCT116 cells, lovastatin sodium 22 μM alone): 58.9%

CC(C)N1CCN(c2ccc(OCC3COC(Cn4cncn4)(c4ccc(Cl)cc4Cl)O3)cc2)CC1 (stereo not shown) [terconazole]
inhibition at 19 µM ([2]; Homo sapiens, HCT-116, read-out: Percent inhibition of Alamar Blue Metabolism, atorvastatin 0 μM, terconazole 19 μM): 38.4%
inhibition at 38 µM ([2]; Homo sapiens, HCT-116, read-out: Percent inhibition of Alamar Blue Metabolism, atorvastatin 0 μM, terconazole 38 μM): 94.8%

Clc1ccc(C(Cn2ccnc2)OCc2ccsc2Cl)c(Cl)c1 (stereo not shown) [tioconazole]
inhibition at 0.3 µM ([2]; Homo sapiens, HCT-116, read-out: Percent inhibition of Alamar Blue Metabolism, tioconazole 0.3 μM, lovastatin 0.0 μM): 8.6%
inhibition at 0.6 µM ([2]; Homo sapiens, HCT-116, read-out: Percent inhibition of Alamar Blue Metabolism, tioconazole 0.6 μM, lovastatin 0.0 μM): 3.7%
inhibition at 9 µM ([2]; Homo sapiens, HCT-116, read-out: Percent inhibition of Alamar Blue Metabolism, tioconazole 9.0 μM, lovastatin 0.0 μM): 19.8%
inhibition at 18 µM [2, 10]: 26.8%
inhibition at 36 µM [2, 10]: 41.3%
